Test results reported in ChEMBL document CHEMBL1129851, “Synthesis and structural optimization of 7-(3,3-disubstituted-1-pyrrolidinyl)-1-cyclopropyl-6-fluoro-1,4-dihydro-8-methoxy-4-oxo-3-quinolinecarboxylic acids as antibacterial agents” (1997).
Converted amounts (≈) assume the structure as drawn.

tested on: Enterococcus faecalis; experiment: Minimum inhibitory concentration in vitro against Enterococcus faecalis LS-101; type: functional

SMILES	MIC
COc1c(N2CCC(CN)(CO)C2)c(F)cc2c(=O)c(C(=O)O)cn(C3CC3)c12 (stereo not drawn)	0.2 µg/mL (≈ 0.493 µM)
COc1c(N2CCC(CN)(CF)C2)c(F)cc2c(=O)c(C(=O)O)cn(C3CC3)c12 (stereo not drawn)	0.05 µg/mL (≈ 0.123 µM)
COc1c(N2CCC(O)(CN)C2)c(F)cc2c(=O)c(C(=O)O)cn(C3CC3)c12 (stereo not drawn)	0.2 µg/mL (≈ 0.511 µM)
COc1c(N2CC[C@@](CN)(CF)C2)c(F)cc2c(=O)c(C(=O)O)cn(C3CC3)c12	0.05 µg/mL (≈ 0.123 µM)
COc1c(N2CCOC(CN)C2)c(F)cc2c(=O)c(C(=O)O)cn(C3CC3)c12 (stereo not drawn)	0.05 µg/mL (≈ 0.128 µM)
COc1c(N2CCC(C)(CN)C2)c(F)cc2c(=O)c(C(=O)O)cn(C3CC3)c12 (stereo not drawn)	0.05 µg/mL (≈ 0.128 µM)
CNCC1(CF)CCN(c2c(F)cc3c(=O)c(C(=O)O)cn(C4CC4)c3c2OC)C1 (stereo not drawn)	0.05 µg/mL (≈ 0.119 µM)
COc1c(N2CC[C@](CN)(CF)C2)c(F)cc2c(=O)c(C(=O)O)cn(C3CC3)c12	0.05 µg/mL (≈ 0.123 µM)
COc1c(N2CCC(CF)(CN(C)C)C2)c(F)cc2c(=O)c(C(=O)O)cn(C3CC3)c12 (stereo not drawn)	0.2 µg/mL (≈ 0.459 µM)
O=C(O)c1cn(C2CC2)c2cc(N3CCNCC3)c(F)cc2c1=O [CIPROFLOXACIN]	0.2 µg/mL (≈ 0.604 µM)
CC1COc2c(N3CCN(C)CC3)c(F)cc3c(=O)c(C(=O)O)cn1c23 (stereo not drawn) [OFLOXACIN]	0.39 µg/mL (≈ 1.08 µM)
C[C@@H]1CN(c2c(F)c(N)c3c(=O)c(C(=O)O)cn(C4CC4)c3c2F)C[C@H](C)N1 [SPARFLOXACIN]	0.1 µg/mL (≈ 0.255 µM)
NC1CCN(c2nc3c(cc2F)c(=O)c(C(=O)O)cn3-c2ccc(F)cc2F)C1 (stereo not drawn) [TOSUFLOXACIN]	0.05 µg/mL (≈ 0.124 µM)

tested on: Escherichia coli; experiment: Minimum inhibitory concentration in vitro against Escherichia coli NIHJ JC-2; type: functional

SMILES	MIC
COc1c(N2CCC(CN)(CO)C2)c(F)cc2c(=O)c(C(=O)O)cn(C3CC3)c12 (stereo not drawn)	0.78 µg/mL (≈ 1.92 µM)
COc1c(N2CCC(CN)(CF)C2)c(F)cc2c(=O)c(C(=O)O)cn(C3CC3)c12 (stereo not drawn)	0.05 µg/mL (≈ 0.123 µM)
COc1c(N2CCC(O)(CN)C2)c(F)cc2c(=O)c(C(=O)O)cn(C3CC3)c12 (stereo not drawn)	0.39 µg/mL (≈ 0.996 µM)
COc1c(N2CC[C@@](CN)(CF)C2)c(F)cc2c(=O)c(C(=O)O)cn(C3CC3)c12	0.05 µg/mL (≈ 0.123 µM)
COc1c(N2CCOC(CN)C2)c(F)cc2c(=O)c(C(=O)O)cn(C3CC3)c12 (stereo not drawn)	0.2 µg/mL (≈ 0.511 µM)
NCC1CN(c2cc3c(cc2F)c(=O)c(C(=O)O)cn3C2CC2)CCO1 (stereo not drawn)	0.39 µg/mL (≈ 1.08 µM)
COc1c(N2CCC(C)(CN)C2)c(F)cc2c(=O)c(C(=O)O)cn(C3CC3)c12 (stereo not drawn)	0.1 µg/mL (≈ 0.257 µM)
NCC1CN(c2c(F)cc3c(=O)c(C(=O)O)cn(C4CC4)c3c2Cl)CCO1 (stereo not drawn)	0.1 µg/mL (≈ 0.253 µM)
NCC1CN(c2c(F)cc3c(=O)c(C(=O)O)cn(C4CC4)c3c2F)CCO1 (stereo not drawn)	0.1 µg/mL (≈ 0.264 µM)
CNCC1(CF)CCN(c2c(F)cc3c(=O)c(C(=O)O)cn(C4CC4)c3c2OC)C1 (stereo not drawn)	0.1 µg/mL (≈ 0.237 µM)
COc1c(N2CC[C@](CN)(CF)C2)c(F)cc2c(=O)c(C(=O)O)cn(C3CC3)c12	0.05 µg/mL (≈ 0.123 µM)
COc1c(N2CCC(CF)(CN(C)C)C2)c(F)cc2c(=O)c(C(=O)O)cn(C3CC3)c12 (stereo not drawn)	0.39 µg/mL (≈ 0.896 µM)
CC1COc2c(N3CCN(C)CC3)c(F)cc3c(=O)c(C(=O)O)cn1c23 (stereo not drawn) [OFLOXACIN]	0.05 µg/mL (≈ 0.138 µM)
C[C@@H]1CN(c2c(F)c(N)c3c(=O)c(C(=O)O)cn(C4CC4)c3c2F)C[C@H](C)N1 [SPARFLOXACIN]	0.025 µg/mL (≈ 0.0637 µM)
NC1CCN(c2nc3c(cc2F)c(=O)c(C(=O)O)cn3-c2ccc(F)cc2F)C1 (stereo not drawn) [TOSUFLOXACIN]	0.025 µg/mL (≈ 0.0618 µM)

tested on: Staphylococcus aureus; experiment: Minimum inhibitory concentration vitro against Staphylococcus aureus No.88; type: functional

SMILES	MIC
COc1c(N2CCC(CN)(CO)C2)c(F)cc2c(=O)c(C(=O)O)cn(C3CC3)c12 (stereo not drawn)	50 µg/mL (≈ 123 µM)
COc1c(N2CCC(CN)(CF)C2)c(F)cc2c(=O)c(C(=O)O)cn(C3CC3)c12 (stereo not drawn)	1.56 µg/mL (≈ 3.83 µM)
COc1c(N2CCC(O)(CN)C2)c(F)cc2c(=O)c(C(=O)O)cn(C3CC3)c12 (stereo not drawn)	50 µg/mL (≈ 128 µM)
COc1c(N2CC[C@@](CN)(CF)C2)c(F)cc2c(=O)c(C(=O)O)cn(C3CC3)c12	0.78 µg/mL (≈ 1.91 µM)
COc1c(N2CCOC(CN)C2)c(F)cc2c(=O)c(C(=O)O)cn(C3CC3)c12 (stereo not drawn)	6.25 µg/mL (≈ 16 µM)
COc1c(N2CCC(C)(CN)C2)c(F)cc2c(=O)c(C(=O)O)cn(C3CC3)c12 (stereo not drawn)	1.56 µg/mL (≈ 4.01 µM)
CNCC1(CF)CCN(c2c(F)cc3c(=O)c(C(=O)O)cn(C4CC4)c3c2OC)C1 (stereo not drawn)	1.56 µg/mL (≈ 3.7 µM)
COc1c(N2CC[C@](CN)(CF)C2)c(F)cc2c(=O)c(C(=O)O)cn(C3CC3)c12	3.13 µg/mL (≈ 7.68 µM)
COc1c(N2CCC(CF)(CN(C)C)C2)c(F)cc2c(=O)c(C(=O)O)cn(C3CC3)c12 (stereo not drawn)	6.25 µg/mL (≈ 14.4 µM)
O=C(O)c1cn(C2CC2)c2cc(N3CCNCC3)c(F)cc2c1=O [CIPROFLOXACIN]	> 100 µg/mL
CC1COc2c(N3CCN(C)CC3)c(F)cc3c(=O)c(C(=O)O)cn1c23 (stereo not drawn) [OFLOXACIN]	50 µg/mL (≈ 138 µM)
C[C@@H]1CN(c2c(F)c(N)c3c(=O)c(C(=O)O)cn(C4CC4)c3c2F)C[C@H](C)N1 [SPARFLOXACIN]	12.5 µg/mL (≈ 31.9 µM)
NC1CCN(c2nc3c(cc2F)c(=O)c(C(=O)O)cn3-c2ccc(F)cc2F)C1 (stereo not drawn) [TOSUFLOXACIN]	> 25 µg/mL

tested on: Streptococcus pneumoniae; experiment: Minimum inhibitory concentration in vitro against Streptococcus pneumoniae Type III; type: functional

SMILES	MIC
COc1c(N2CCC(CN)(CO)C2)c(F)cc2c(=O)c(C(=O)O)cn(C3CC3)c12 (stereo not drawn)	0.39 µg/mL (≈ 0.962 µM)
COc1c(N2CCC(CN)(CF)C2)c(F)cc2c(=O)c(C(=O)O)cn(C3CC3)c12 (stereo not drawn)	0.05 µg/mL (≈ 0.123 µM)
COc1c(N2CCC(O)(CN)C2)c(F)cc2c(=O)c(C(=O)O)cn(C3CC3)c12 (stereo not drawn)	0.2 µg/mL (≈ 0.511 µM)
COc1c(N2CC[C@@](CN)(CF)C2)c(F)cc2c(=O)c(C(=O)O)cn(C3CC3)c12	0.05 µg/mL (≈ 0.123 µM)
COc1c(N2CCOC(CN)C2)c(F)cc2c(=O)c(C(=O)O)cn(C3CC3)c12 (stereo not drawn)	0.2 µg/mL (≈ 0.511 µM)
NCC1CN(c2cc3c(cc2F)c(=O)c(C(=O)O)cn3C2CC2)CCO1 (stereo not drawn)	0.39 µg/mL (≈ 1.08 µM)
COc1c(N2CCC(C)(CN)C2)c(F)cc2c(=O)c(C(=O)O)cn(C3CC3)c12 (stereo not drawn)	0.05 µg/mL (≈ 0.128 µM)
NCC1CN(c2c(F)cc3c(=O)c(C(=O)O)cn(C4CC4)c3c2Cl)CCO1 (stereo not drawn)	0.1 µg/mL (≈ 0.253 µM)
NCC1CN(c2c(F)cc3c(=O)c(C(=O)O)cn(C4CC4)c3c2F)CCO1 (stereo not drawn)	0.1 µg/mL (≈ 0.264 µM)
CNCC1(CF)CCN(c2c(F)cc3c(=O)c(C(=O)O)cn(C4CC4)c3c2OC)C1 (stereo not drawn)	0.2 µg/mL (≈ 0.475 µM)
COc1c(N2CC[C@](CN)(CF)C2)c(F)cc2c(=O)c(C(=O)O)cn(C3CC3)c12	0.05 µg/mL (≈ 0.123 µM)
COc1c(N2CCC(CF)(CN(C)C)C2)c(F)cc2c(=O)c(C(=O)O)cn(C3CC3)c12 (stereo not drawn)	0.2 µg/mL (≈ 0.459 µM)
O=C(O)c1cn(C2CC2)c2cc(N3CCNCC3)c(F)cc2c1=O [CIPROFLOXACIN]	0.39 µg/mL (≈ 1.18 µM)
CC1COc2c(N3CCN(C)CC3)c(F)cc3c(=O)c(C(=O)O)cn1c23 (stereo not drawn) [OFLOXACIN]	0.78 µg/mL (≈ 2.16 µM)
C[C@@H]1CN(c2c(F)c(N)c3c(=O)c(C(=O)O)cn(C4CC4)c3c2F)C[C@H](C)N1 [SPARFLOXACIN]	0.1 µg/mL (≈ 0.255 µM)
NC1CCN(c2nc3c(cc2F)c(=O)c(C(=O)O)cn3-c2ccc(F)cc2F)C1 (stereo not drawn) [TOSUFLOXACIN]	0.1 µg/mL (≈ 0.247 µM)

tested on: Staphylococcus aureus; experiment: Minimum inhibitory concentration in vitro against Staphylococcus aureus FDA 209P; type: functional

SMILES	MIC
COc1c(N2CCC(CN)(CO)C2)c(F)cc2c(=O)c(C(=O)O)cn(C3CC3)c12 (stereo not drawn)	0.1 µg/mL (≈ 0.247 µM)
COc1c(N2CCC(CN)(CF)C2)c(F)cc2c(=O)c(C(=O)O)cn(C3CC3)c12 (stereo not drawn)	0.012 µg/mL (≈ 0.0295 µM)
COc1c(N2CCC(O)(CN)C2)c(F)cc2c(=O)c(C(=O)O)cn(C3CC3)c12 (stereo not drawn)	0.1 µg/mL (≈ 0.255 µM)
COc1c(N2CC[C@@](CN)(CF)C2)c(F)cc2c(=O)c(C(=O)O)cn(C3CC3)c12	0.012 µg/mL (≈ 0.0295 µM)
COc1c(N2CCOC(CN)C2)c(F)cc2c(=O)c(C(=O)O)cn(C3CC3)c12 (stereo not drawn)	0.025 µg/mL (≈ 0.0639 µM)
NCC1CN(c2cc3c(cc2F)c(=O)c(C(=O)O)cn3C2CC2)CCO1 (stereo not drawn)	0.2 µg/mL (≈ 0.553 µM)
COc1c(N2CCC(C)(CN)C2)c(F)cc2c(=O)c(C(=O)O)cn(C3CC3)c12 (stereo not drawn)	0.012 µg/mL (≈ 0.0308 µM)
NCC1CN(c2c(F)cc3c(=O)c(C(=O)O)cn(C4CC4)c3c2Cl)CCO1 (stereo not drawn)	0.012 µg/mL (≈ 0.0303 µM)
NCC1CN(c2c(F)cc3c(=O)c(C(=O)O)cn(C4CC4)c3c2F)CCO1 (stereo not drawn)	0.025 µg/mL (≈ 0.0659 µM)
CNCC1(CF)CCN(c2c(F)cc3c(=O)c(C(=O)O)cn(C4CC4)c3c2OC)C1 (stereo not drawn)	0.025 µg/mL (≈ 0.0593 µM)
COc1c(N2CC[C@](CN)(CF)C2)c(F)cc2c(=O)c(C(=O)O)cn(C3CC3)c12	0.012 µg/mL (≈ 0.0295 µM)
COc1c(N2CCC(CF)(CN(C)C)C2)c(F)cc2c(=O)c(C(=O)O)cn(C3CC3)c12 (stereo not drawn)	0.1 µg/mL (≈ 0.23 µM)
O=C(O)c1cn(C2CC2)c2cc(N3CCNCC3)c(F)cc2c1=O [CIPROFLOXACIN]	0.2 µg/mL (≈ 0.604 µM)
CC1COc2c(N3CCN(C)CC3)c(F)cc3c(=O)c(C(=O)O)cn1c23 (stereo not drawn) [OFLOXACIN]	0.2 µg/mL (≈ 0.553 µM)
C[C@@H]1CN(c2c(F)c(N)c3c(=O)c(C(=O)O)cn(C4CC4)c3c2F)C[C@H](C)N1 [SPARFLOXACIN]	0.05 µg/mL (≈ 0.127 µM)
NC1CCN(c2nc3c(cc2F)c(=O)c(C(=O)O)cn3-c2ccc(F)cc2F)C1 (stereo not drawn) [TOSUFLOXACIN]	0.025 µg/mL (≈ 0.0618 µM)
